Assay results as given in BindingDB's records for doi:10.1021/jm049715t (Uppsala University, 2004).

target: Type-2 angiotensin II receptor (Sus scrofa); test: Displacement of [125I]-Ang II from pig uterus membrane angiotensin II type 2 (AT2) receptor

Structure (SMILES)	Ki [nM]
CCCCOC(=O)NS(=O)(=O)c1sc(CC(C)C)cc1-c1ccc(Cn2cnc3cccnc32)cc1 [butyl (5-isobutylthien-2-yl)sulfonylcarbamate derivative]	7.1
CCCCOC(=O)NS(=O)(=O)c1sc(CC(C)C)cc1-c1ccc(Cn2ccnc2C)cc1 [butyl (5-isobutylthien-2-yl)sulfonylcarbamate derivative]	0.5

Continued by falling Ki, values first:

Ki [nM]	Structure (SMILES)
70	CCCCOC(=O)NS(=O)(=O)c1sc(CC(C)C)cc1-c1ccc(CC#N)cc1 [butyl (5-isobutylthien-2-yl)sulfonylcarbamate derivative]
4	CCCCOC(=O)NS(=O)(=O)c1sc(CC(C)C)cc1-c1ccc(Cn2cnc3ccccc32)cc1 [butyl (5-isobutylthien-2-yl)sulfonylcarbamate derivative]
3.2	CCCCOC(=O)NS(=O)(=O)c1sc(CC(C)C)cc1-c1ccc(Cn2c(CC)nc3ccccc32)cc1 [butyl (5-isobutylthien-2-yl)sulfonylcarbamate derivative]
